Results published in PMC8635421, “Illumination of serotonin transporter mechanism and role of the allosteric site” (Science Advances, 2021).

What was measured:
[1] = biological target: T1, SERT allosteric site (Homo sapiens, UniProt P31645, I291A/T439S); experiment: [3H]VLZ competition binding (SPA) in the presence of imipramine, allosteric site; conditions: 800 nM [3H]VLZ and 800 nM imipramine, NaCl; read-out: Ki, competition with [3H]VLZ (affinity for the allosteric site)
T1 construct: GFP (C); Strep tag (purification tag); made in house; host or cells: HEK-293S GnTI- cells, baculovirus-mediated transduction
T1 sequence (P31645 whole entry I291A/T439S): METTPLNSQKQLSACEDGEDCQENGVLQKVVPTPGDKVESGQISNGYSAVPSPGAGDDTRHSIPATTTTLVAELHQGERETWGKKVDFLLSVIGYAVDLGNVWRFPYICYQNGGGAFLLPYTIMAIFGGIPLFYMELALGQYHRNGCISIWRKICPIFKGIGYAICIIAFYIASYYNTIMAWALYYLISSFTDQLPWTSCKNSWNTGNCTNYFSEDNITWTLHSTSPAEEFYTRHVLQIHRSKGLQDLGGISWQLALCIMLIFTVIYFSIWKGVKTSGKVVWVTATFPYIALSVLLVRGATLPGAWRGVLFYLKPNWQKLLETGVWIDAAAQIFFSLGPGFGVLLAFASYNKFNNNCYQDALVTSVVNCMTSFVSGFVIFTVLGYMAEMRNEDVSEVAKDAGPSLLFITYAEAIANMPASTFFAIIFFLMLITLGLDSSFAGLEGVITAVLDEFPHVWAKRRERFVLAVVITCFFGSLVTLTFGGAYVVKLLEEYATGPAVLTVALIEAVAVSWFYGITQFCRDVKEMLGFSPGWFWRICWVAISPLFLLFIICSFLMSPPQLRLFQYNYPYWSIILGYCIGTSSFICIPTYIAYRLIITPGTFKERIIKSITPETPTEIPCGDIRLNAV
Protocol: (§1) All the competition-binding experiments were performed using scintillation proximity assays (SPAs) ([58]) with Cu-YSi beads (1 mg ml^−1) in SPA buffer containing 20 mM tris-HCl (pH 8), 100 mM NaCl, or 100 mM KCl. […] For the [^3H]paroxetine experiments, 1 nM SERT was used along with 0.3 μM to 10 mM of the cold competitors and 20 nM [^3H]paroxetine. […] Experiments were measured in triplicate. The error bars for each data point represent the SEM Ki values and were determined with the Cheng-Prusoff equation ([59]) in GraphPad Prism.

[2] = biological target: T2, SERT (Homo sapiens, UniProt P31645); experiment: biochemical; format: binding; conditions: competition with [3H]paroxetine, SERT in nanodiscs, 100 mM NaCl, 20 nM [3H]paroxetine, n = 3 technical replicates
T2 construct: N- and C-terminally truncated but otherwise wild-type (ΔN72, ΔC13); GFP (C); Strep tag (purification tag); made in house; host or cells: HEK-293S GnTI- cells, baculovirus-mediated transduction
T2 sequence (P31645 73-617 limits assumed): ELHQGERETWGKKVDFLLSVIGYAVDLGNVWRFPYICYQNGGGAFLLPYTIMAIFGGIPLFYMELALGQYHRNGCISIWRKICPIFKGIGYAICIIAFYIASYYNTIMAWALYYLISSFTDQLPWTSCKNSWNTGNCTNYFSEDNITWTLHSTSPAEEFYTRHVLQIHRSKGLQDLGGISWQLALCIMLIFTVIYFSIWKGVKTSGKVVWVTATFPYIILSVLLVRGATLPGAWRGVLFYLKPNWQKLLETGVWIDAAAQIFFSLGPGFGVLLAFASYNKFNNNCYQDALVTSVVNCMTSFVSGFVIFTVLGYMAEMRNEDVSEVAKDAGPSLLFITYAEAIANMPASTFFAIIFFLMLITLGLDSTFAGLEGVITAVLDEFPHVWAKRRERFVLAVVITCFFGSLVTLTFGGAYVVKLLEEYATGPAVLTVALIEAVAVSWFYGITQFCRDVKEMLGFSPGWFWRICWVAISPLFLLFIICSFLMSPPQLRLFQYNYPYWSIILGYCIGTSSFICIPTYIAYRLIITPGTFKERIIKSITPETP
Protocol: as §1

[3] = biological target: T2, SERT; experiment: Uptake of 3H-labeled N-indole methyl derivative in HEK-293S GnTI- cells transduced with ΔN72/C13 SERT; format: cell-based; conditions: 3H-labeled compound, fig. S3H
Protocol: To measure the uptake of the N-indole methyl derivative, 1 × 10^5 HEK-293S GnTI^− cells were transduced with viruses for ΔN72/C13 SERT. The cells were plated into 96-well plates coated with poly-D-lysine. After 24 hours, cells were washed with uptake buffer [25 mM Hepes-tris (pH 7), 130 mM NaCl, 5.4 mM KCl, 1.2 mM CaCl2, 1.2 mM MgSO4, 1 mM ascorbic acid, and 5 mM glucose]. The custom-synthesized [^3H]3-(2-aminoethyl)-1-methyl-1H-indol-5-ol hydrochloride isotope was diluted 1:1000 with unlabeled ligand, and a final concentration 0.78 to 100 μM was added to the cells. Uptake was stopped at 5 min by rapidly washing cells three times with 100 μl of uptake buffer, solubilizing with 20 μl of 1% Triton-X100, followed by addition of 200 μl of scintillation fluid to each well. A final concentration of 100 μM S-citalopram was added to the cells to estimate nonspecific counts. The amount of labeled 3-(2-aminoethyl)-1-methyl-1H-indol-5-ol hydrochloride was measured by counting in a standard 96-well plate using a MicroBeta scintillation counter.

Question: With `Cl.Cn1cc(CCN)c2cc(O)ccc21` [3-(2-aminoethyl)-1-methyl-1H-indol-5-ol hydrochloride] as the compound, how does the Ki [1] read?
Answer: Its Ki is 24.9 ± 5.4 µM.

Question: And the Ki [2]?
Answer: The Ki was 5.4 ± 1 µM.

Question: What about the “substrate for SERT (uptake)” value [3] of the same compound?
Answer: Its value is “robust substrate”.

Question: How did the Ki [2] turn out when `CNCCc1c[nH]c2ccc(OC)cc12` [5-methoxy-N-methyltryptamine] was run?
Answer: The Ki was 3.9 ± 0.9 µM.

Question: `CNCCc1c[nH]c2ccc(O)cc12` [N-ω-methyl-5-hydroxytryptamine] was tested. Which Ki [2] did it give?
Answer: Its Ki is 2.8 ± 0.9 µM.
